“And” between values parts separate entries of the source, which are not always exact repeats. Equal values may be shown once.
Q: For `NS(=O)(=O)c1cc2c(cc1Cl)NCNS2(=O)=O` [hydrochlorothiazide], which melting point is on record?
A: 270 °C

Q: With `CCCCCCCCCCCCCC(=O)O` [Myristic acid] as the molecule, how does the melting point read?
A: 55.1 °C

Q: For `COc1ccc2cc(C(C)CO)ccc2c1` (centres undefined) [naproxol], which melting point is on record?
A: 87 °C

Q: Which melting point does the source give for `CC(=O)Nc1ccc(O)cc1` [Acetaminophen] here?
A: 170 °C

Q: Which melting point does the source give for `C=C(C)Cn1c(N)cc(=O)n(C)c1=O` [amisometradine] here?
A: 175 °C

Q: For `O=C1OC2(OC=C(c3ccccc3)C2=O)c2ccccc21` (centres undefined) [fluorescamine], which melting point is on record?
A: 157 °C

Q: Which melting point does the source give for `CC(C)(C)S` [2-methyl-2-propanethiol] here?
A: 1 °C

Q: For `OB(O)c1cc(Cl)ccc1Cl` [2,5-dichlorobenzeneboronic acid], which melting point is on record?
A: 213 °C

Q: With `COc1ccc(-c2csc(/C(C#N)=N/Nc3ccc(C)cc3)n2)cc1` as the molecule, how does the melting point read?
A: 152 °C

Q: Which melting point does the source give for `c1ccc2c(c1)c1ccccc1c1ccccc21` [Triphenylene] here?
A: 197 °C

Q: With `Nc1ccccc1C(O)(c1ccccc1)c1ccccc1` [(2-aminophenyl)(diphenyl)methanol] as the molecule, how does the melting point read?
A: 122 °C

Q: Which melting point does the source give for `CCOC(=O)CC(C)=O` [ethyl_acetoacetate] here?
A: -43 °C

Q: For `Cc1ccccc1-c1nnn[nH]1` [5-(2-methylphenyl)-1h-tetrazole], which melting point is on record?
A: 153 °C

Q: Which melting point does the source give for `Fc1nc(Cl)c2nc[nH]c2n1` [6-chloro-2-fluoropurine] here?
A: 152 °C

Q: With `NC(=O)OCC(COC(N)=O)c1ccccc1` [felbamate] as the molecule, how does the melting point read?
A: 151 °C

Q: Which melting point does the source give for `CSc1cnccn1` [2-(methylthio)pyrazine] here?
A: 44 °C

Q: With `Cc1c([N+](=O)[O-])cc[n+]([O-])c1C` [2,3-dimethyl-4-nitropyridine n-oxide] as the molecule, how does the melting point read?
A: 93 °C

Q: With `CC(=O)CCC(C)=O` [acetonylacetone] as the molecule, how does the melting point read?
A: -6 °C

Q: For `OB(O)c1cccc2c1Sc1ccccc1S2` [thianthrene-1-boronic acid], which melting point is on record?
A: 147 °C

Q: Which melting point does the source give for `O=C(O)CSc1nnc(S)s1` [(5-mercapto-1,3,4-thiadiazol-2-ylthio)acetic acid] here?
A: 167 °C

Q: With `CCOC(=O)c1ccc(N)cc1` [Ethyl 4-aminobenzoate] as the molecule, how does the melting point read?
A: 89 °C

Q: Which melting point does the source give for `CC(=O)Nc1cccc(F)c1` [3'-fluoroacetanilide] here?
A: 88 °C

Q: With `CC=C(/C)CCC` [3-methyl-trans-2-hexene] as the molecule, how does the melting point read?
A: -129 °C

Q: For `CC(=O)N[C@@H](Cc1ccc(O)cc1)C(=O)O` [N-acetyl-l-tyrosine], which melting point is on record?
A: 153 °C

Q: For `COc1cc(OC)c2c(c1Cl)O[C@]1(C2=O)C(OC)CC(=O)C[C@H]1C` (some centres undefined) [griseofulvin], which melting point is on record?
A: 220 °C

Q: With `COC(=O)[C@H](Cc1ccccc1)NC(=O)[C@@H](N)CC(=O)O` [Methyl L-alpha-aspartyl-L-phenylalaninate] as the molecule, how does the melting point read?
A: 249 °C

Q: Which melting point does the source give for `N=C(N)NC(N)=S` [N-amidinothiourea] here?
A: 164 °C

Q: With `Cc1ccccc1` [toluene] as the molecule, how does the melting point read?
A: -93 °C

Q: For `O=C(O)CCCc1ccc2ccc3cccc4ccc1c2c34` [1-pyrenebutyric acid], which melting point is on record?
A: 185 °C

Q: With `COc1ccc2c(C(=S)N(C)CC(=O)O)cccc2c1C(F)(F)F` [tolrestat] as the molecule, how does the melting point read?
A: 164 °C

Q: With `Cc1ccc(OC(=O)c2ccccc2)cc1` [p-tolyl_benzoate] as the molecule, how does the melting point read?
A: 70 °C

Q: Which melting point does the source give for `CCC(C)c1ccccc1O` (centres undefined) [2-sec-Butylphenol] here?
A: 12 °C

Q: With `COc1ccc(C(=O)Cc2ccccc2)cc1OC` [1-(3,4-Dimethoxyphenyl)-2-phenylethanone] as the molecule, how does the melting point read?
A: 73 °C

Q: For `Cc1cc(C)nc(C)c1` [2,4,6-collidine], which melting point is on record?
A: -43 °C

Q: For `Cc1ccc(S(=O)(=O)OCCCOS(=O)(=O)c2ccc(C)cc2)cc1` [1,3-propanediol di-p-toluenesulfonate], which melting point is on record?
A: 91 °C

Q: For `O=C(/C=C/c1ccc(-c2ccccc2)o1)c1ccco1` [(2E)-1-(2-furyl)-3-(5-phenyl-2-furyl)prop-2-en-1-one], which melting point is on record?
A: 100 °C

Q: Which melting point does the source give for `O=C(c1ccccc1)c1ccc(Cl)c(Cl)c1` [3,4-dichlorobenzophenone] here?
A: 102 °C

Q: For `N#Cc1cccc(C#N)c1` [isophthalonitrile], which melting point is on record?
A: 161 °C

Q: Which melting point does the source give for `CCCN(CC1CC1)c1c([N+](=O)[O-])cc(C(F)(F)F)cc1[N+](=O)[O-]` [Profluralin] here?
A: 32 °C

Q: Which melting point does the source give for `CCCCCCCCCCCCc1ccccc1` [N-dodecylbenzene] here?
A: -7 °C

Q: With `Cc1cc(C)c(Br)c(C)c1` [2-bromomesitylene] as the molecule, how does the melting point read?
A: 2 °C

Q: For `CCOC(=O)c1ccc(B(O)O)cc1` [4-(ethoxycarbonyl)benzeneboronic acid], which melting point is on record?
A: 139 °C

Q: For `CCn1cc(C(=O)O)c(=O)c2ccc(C)nc21` [nalidixic acid], which melting point is on record?
A: 229 °C

Q: With `O=C(Oc1ccccc1)c1ccccc1` [phenyl_benzoate] as the molecule, how does the melting point read?
A: 70 °C

Q: Which melting point does the source give for `O=C(Cl)c1ccc([N+](=O)[O-])cc1` [4-Nitrobenzoyl chloride] here?
A: 75 °C

Q: For `N[C@@H](CCC(=O)N[C@@H](CS)C(=O)NCC(=O)O)C(=O)O` [Glutathione], which melting point is on record?
A: 194 °C

Q: For `BrCCBr` [1,2-dibromoethane], which melting point is on record?
A: 10 °C

Q: Which melting point does the source give for `Cc1ccc(S(=O)(=O)Cl)cc1[N+](=O)[O-]` [4-methyl-3-nitrobenzenesulfonyl chloride] here?
A: 35 °C

Q: Which melting point does the source give for `O=C1OC(=O)c2c(Cl)c(Cl)c(Cl)c(Cl)c21` [tetrachlorophthalic anhydride] here?
A: 256 °C

Q: Which melting point does the source give for `O=C(Cl)C(Cl)(Cl)Cl` [trichloroacetyl chloride] here?
A: -146 °C

Q: With `CCC(=O)CC` [3-pentanone] as the molecule, how does the melting point read?
A: -39 °C

Q: With `CO` [Methanol] as the molecule, how does the melting point read?
A: -98 °C

Q: For `BrC(=C(c1ccccc1)c1ccccc1)c1ccccc1` [bromotriphenylethylene], which melting point is on record?
A: 114 °C

Q: With `NCC(O)c1ccccc1` (centres undefined) [2-Amino-1-phenylethanol] as the molecule, how does the melting point read?
A: 57 °C

Q: For `CC1(c2ccccc2B(O)O)OCCO1` [2-(2-methyl-1,3-dioxolan-2-yl)benzeneboronic acid], which melting point is on record?
A: 111 °C

Q: With `Cc1cc(Cl)cc(C=O)c1O` [5-chloro-2-hydroxy-3-methylbenzaldehyde] as the molecule, how does the melting point read?
A: 59 °C

Q: For `Brc1ccc(I)cc1` [1-bromo-4-iodobenzene], which melting point is on record?
A: 91 °C

Q: For `O=C1CCCCCN1` [epsilon-caprolactam], which melting point is on record?
A: 70 °C

Q: With `CC=1CCCC(C)(C)C=1/C=CC(C)=CC=CC(C)=CC(=O)O` [Alitretinoin] as the molecule, how does the melting point read?
A: 190 °C

Q: For `CC(=O)Nc1ccc(O)cc1` [N-(4-Hydroxyphenyl)acetamide], which melting point is on record?
A: 170 °C

Q: With `CCOC(=O)c1ccccn1` [ethyl picolinate] as the molecule, how does the melting point read?
A: 2 °C

Q: Which melting point does the source give for `Clc1cc(Cl)nc(Cl)n1` [2,4,6-trichloropyrimidine] here?
A: 23 °C

Q: For `CCc1ccccc1CC` [1,2-diethylbenzene], which melting point is on record?
A: -31 °C

Q: Which melting point does the source give for `CCOC(=O)/C(C#N)=N\Nc1ccc(Cl)cc1` [Ethyl (2Z)-[(4-chlorophenyl)hydrazono](cyano)acetate] here?
A: 162 °C

Q: With `O=Cc1ccco1` [furfuraldehyde] as the molecule, how does the melting point read?
A: -36.5 °C

Q: Which melting point does the source give for `CCOC(=O)C(C(=O)OCC)c1ccccc1` [diethyl phenylmalonate] here?
A: 16 °C

Q: With `O=C(O)c1cc(Cl)cc(Cl)c1O` [3,5-dichlorosalicylic acid] as the molecule, how does the melting point read?
A: 224 °C

Q: With `c1ccc(Cn2ccnc2)cc1` [1-benzylimidazole] as the molecule, how does the melting point read?
A: 71 °C

Q: Which melting point does the source give for `NC(=O)NNc1ccccc1` [1-phenylsemicarbazide] here?
A: 172 °C

Q: For `N#Cc1c(N)sc2c1CCCC2` [2-amino-4,5,6,7-tetrahydrobenzo[b]thiophene-3-carbonitrile], which melting point is on record?
A: 143 °C

Q: For `Oc1ccc(Cl)c(Cl)c1` [3,4-dichlorophenol], which melting point is on record?
A: 66 °C

Q: For `Cc1cc(O)n2ncnc2n1` [7-hydroxy-5-methyl[1,2,4]triazolo[1,5-a]pyrimidine], which melting point is on record?
A: 283 °C

Q: For `CC1=CCCC1` [1-methylcyclopentene], which melting point is on record?
A: -142 °C

Q: With `O[C@@H]1CO[C@H]2[C@@H]1OC[C@@H]2O` [D-isosorbide] as the molecule, how does the melting point read?
A: 60 °C

Q: For `CC(CC(=O)O)C(=O)O` (centres undefined) [2-Methylsuccinic acid], which melting point is on record?
A: 111 °C

Q: For `Cc1c(C)c(C)c2c(c1C)CC2=O` [2,3,4,5-Tetramethylbicyclo(4.2.0)octa-1,3,5-trien-7-one], which melting point is on record?
A: 161 °C

Q: Which melting point does the source give for `O=C(O)c1ccc([N+](=O)[O-])cc1` [4-nitrobenzoic acid] here?
A: 242 °C

Q: Which melting point does the source give for `N#Cc1ccccc1` [benzonitrile] here?
A: -13 °C

Q: With `ClC(Cl)(Cl)Cl` [Tetrachloromethane] as the molecule, how does the melting point read?
A: -23 °C

Q: For `O=[N+]([O-])c1ccc(O)c([N+](=O)[O-])c1` [2,4-dinitrophenol], which melting point is on record?
A: 107 °C

Q: For `Nc1c(F)cc(Br)cc1F` [4-bromo-2,6-difluoroaniline], which melting point is on record?
A: 64 °C

Q: With `C[C@]12CC[C@H]3[C@@H](CCC4=CC(=O)CC[C@@]43C)[C@@H]1CC[C@@H]2C(=O)CO` [Deoxycorticosterone] as the molecule, how does the melting point read?
A: 142 °C

Q: Which melting point does the source give for `O=C(Nc1ccccc1)Nc1ccccc1` [1,3-DIPHENYLUREA] here?
A: 232 °C

Q: For `Cc1cccc2cc[nH]c12` [7-methylindole], which melting point is on record?
A: 84 °C

Q: For `C(O)[C@H](O)[C@@H](O)[C@@H](O)CO` [L-arabitol], which melting point is on record?
A: 101 °C

Q: For `Cc1cc(C)c(C(=O)C(=O)O)c(C)c1` [mesitylglyoxylic acid], which melting point is on record?
A: 121 °C

Q: With `C[Si](Cl)(Cl)Cl` [methyltrichlorosilane] as the molecule, how does the melting point read?
A: -78 °C

Q: Which melting point does the source give for `O=Cc1cccc(C(=O)O)c1` [m-formyl_benzoic_acid] here?
A: 175 °C

Q: For `CNc1ccc(Cl)cc1C(=O)c1ccccc1` [5-chloro-2-methylaminobenzophenone], which melting point is on record?
A: 96 °C

Q: With `c1cc2c3c(cccc3c1)CC2` [acenaphthene] as the molecule, how does the melting point read?
A: 94 °C (2×) and 95 °C

Q: Which melting point does the source give for `COc1ccc(B(O)O)c(C)c1` [4-methoxy-2-methylbenzeneboronic acid] here?
A: 191 °C

Q: Which melting point does the source give for `O=C(O)C(c1ccccc1)c1ccccc1` [diphenylacetic acid] here?
A: 147 °C

Q: For `C/C(=C\C(=O)O)c1ccc(C)cc1` [(2E)-3-(4-methylphenyl)but-2-enoic acid], which melting point is on record?
A: 135 °C

Q: For `CC(O)CN(C)C` (centres undefined) [1-dimethylamino-2-propanol], which melting point is on record?
A: -85 °C

Q: Which melting point does the source give for `Oc1ccccc1C(F)(F)F` [2-(trifluoromethyl)phenol] here?
A: 46 °C

Q: With `COC(=O)c1ccccc1S(N)(=O)=O` [2-(methoxycarbonyl)benzenesulfonamide] as the molecule, how does the melting point read?
A: 124 °C

Q: For `OC[C@H]1OC(O)[C@@H](O)[C@@H](O)[C@@H]1O` (stereo partly drawn) [D-mannose], which melting point is on record?
A: 130 °C

Q: For `Nc1ccc(/N=N/c2ccc(/N=N/c3ccc(/N=N/c4ccc(/N=N/c5ccc(N)cc5)cc4)cc3)cc2)cc1`, which melting point is on record?
A: 292 °C

Q: For `Cc1ccc(C2(O)CCN(CCCC(=O)c3ccc(F)cc3)CC2)cc1` [moperone], which melting point is on record?
A: 118 °C

— the Bradley open melting point set (2014)
